Assay results reported in ChEMBL document CHEMBL1201862, “PubChem BioAssay data set” (2004).
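Interpolation was linear, between the two tested concentrations surrounding the appropriate level; five concentrations were tested over 48 hours in 96-well plates. Abbreviation: GI50, concentration required for 50% inhibition of growth.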 Activity calls are given as the source filed them. No stated cut-off is given here; in the data, active = GI50 up to about 1.1 µM and inactive = higher.

Tests used:
Test in all cases: inhibition of tumour cell growth, NCI panel, 48 h
[1] = tested on: MDA-MB-435
[2] = tested on: BT-549
[3] = tested on: NCI-H23
[4] = tested on: RXF 393
[5] = tested on: MCF7
[6] = tested on: Malme-3M
[7] = tested on: OVCAR-4
[8] = tested on: SK-MEL-28
[9] = tested on: RPMI-8226
[10] = tested on: U-251
[11] = tested on: NCI-H522
[12] = tested on: A549
[13] = tested on: KM12
[14] = tested on: LOX IMVI
[15] = tested on: SN12C
[16] = tested on: UACC-62
[17] = tested on: HOP-62
[18] = tested on: ACHN
[19] = tested on: NCI-H460
[20] = tested on: EKVX
[21] = tested on: SK-MEL-2
[22] = tested on: CAKI-1
[23] = tested on: TK-10
[24] = tested on: SK-OV-3
[25] = tested on: OVCAR-8
[26] = tested on: UACC-257
[27] = tested on: Hs-578T
[28] = tested on: PC-3
[29] = tested on: 786-0
[30] = tested on: T47D
[31] = tested on: HOP-92
[32] = tested on: SF-539
[33] = tested on: DU-145
[34] = tested on: COLO 205
[35] = tested on: HCC 2998
[36] = tested on: MDA-MB-231
[37] = tested on: NCI-H226
[38] = tested on: MDA-N
[39] = tested on: SF-295
[40] = tested on: CCRF-CEM
[41] = tested on: MOLT-4
[42] = tested on: HCT-116
[43] = tested on: SR
[44] = tested on: A498
[45] = tested on: HCT-15
[46] = tested on: IGROV-1
[47] = tested on: K562
[48] = tested on: HL-60
[49] = tested on: OVCAR-3
[50] = tested on: NCI/ADR-RES
[51] = tested on: M14
[52] = tested on: SK-MEL-5
[53] = tested on: SF-268
[54] = tested on: SW-620
[55] = tested on: OVCAR-5
[56] = tested on: HT-29
[57] = tested on: SNB-19
[58] = tested on: SNB-75

## COc1cccc(N2C(=O)C3CC(CC(C)(C)C)c4c([nH]c5ccccc45)C3C2=O)c1 (stereo not drawn)
[1]
  GI50: > 10 µM (inactive)
[2]
  GI50: 9.51 µM (inactive)
[3]
  GI50: > 10 µM (inactive)
[4]
  GI50: > 10 µM (inactive)
[5]
  GI50: 8.55 µM (inactive)
[6]
  GI50: 5.9 µM (inactive)
[7]
  GI50: 2.62 µM (inactive)
[8]
  GI50: > 10 µM (inactive)
[9]
  GI50: > 10 µM (inactive)
[10]
  GI50: 7.91 µM (inactive)
[11]
  GI50: > 10 µM (inactive)
[12]
  GI50: > 10 µM (inactive)
[13]
  GI50: > 10 µM (inactive)
[14]
  GI50: 9.44 µM (inactive)
[15]
  GI50: 6 µM (inactive)
[16]
  GI50: > 10 µM (inactive)
[17]
  GI50: 9.16 µM (inactive)
[18]
  GI50: > 10 µM (inactive)
[19]
  GI50: 6.47 µM (inactive)
[20]
  GI50: > 10 µM (inactive)
[21]
  GI50: > 10 µM (inactive)
[22]
  GI50: > 10 µM (inactive)
[23]
  GI50: > 10 µM (inactive)
[24]
  GI50: > 10 µM (inactive)
[25]
  GI50: 3.56 µM (inactive)
[26]
  GI50: > 10 µM (inactive)
[27]
  GI50: 3.5 µM (inactive)
[28]
  GI50: > 10 µM (inactive)
[29]
  GI50: 3.8 µM (inactive)
[30]
  GI50: > 10 µM (inactive)
[31]
  GI50: > 10 µM (inactive)
[32]
  GI50: 2.56 µM (inactive)
[33]
  GI50: > 10 µM (inactive)
[34]
  GI50: > 10 µM (inactive)
[35]
  GI50: > 10 µM (inactive)
[36]
  GI50: 4.92 µM (inactive)
[37]
  GI50: 2.77 µM (inactive)
[38]
  GI50: > 10 µM (inactive)
[39]
  GI50: > 10 µM (inactive)
[40]
  GI50: > 10 µM (inactive)
[41]
  GI50: > 10 µM (inactive)
[42]
  GI50: 4.93 µM (inactive)
[43]
  GI50: 1.48 µM (inactive)
[44]
  GI50: > 10 µM (inactive)
[45]
  GI50: > 10 µM
[46]
  GI50: > 10 µM (inactive)
[47]
  GI50: > 10 µM (inactive)
[48]
  GI50: > 10 µM (inactive)
[49]
  GI50: > 10 µM (inactive)
[50]
  GI50: > 10 µM (inactive)
[51]
  GI50: 5.82 µM (inactive)
[52]
  GI50: > 10 µM (inactive)
[53]
  GI50: > 10 µM (inactive)
[54]
  GI50: > 10 µM (inactive)
[55]
  GI50: > 10 µM (inactive)
[56]
  GI50: > 10 µM (inactive)
[57]
  GI50: > 10 µM (inactive)
[58]
  GI50: 1.84 µM (inactive)
